Patent US20240299359A1, “PHARMACEUTICAL COMPOSITION FOR ANIMALS CONTAINING 5-HYDROXY-METHYLIMIDAZOLIDINE-2,4-DIONE COMPOUND AS ACTIVE INGREDIENT” (KYONGBO PHARM. CO., LTD., priority 2021, published 2024)
Values joined by “and” are separate entries in the source; they are usually repeats but may differ in a detail not shown here. Equal values may be shown once.

Assay: 13-week repeated oral toxicity: weight measurement
Format: in vivo, beagle
Protocol: During the 13-week test period starting from the day before administration, the weight was measured a total of 15 times before administration (pre), before administration on the day of administration, and every week over the 13-week test period after the first administration at a predetermined time (remaining feed measurement time) before administration of the test substance (on every Tuesday during the test period).

## CN1C(=O)NC(=O)C1O (centres unmarked) [KBP-001, 5-hydroxy-1-methylimidazolidine-2,4-dione]
200 mg/kg repeated oral (G2), female, week 0, individual animals
  Weight: 9.6 (2×) and 9.1
200 mg/kg repeated oral (G2), female, week 0, mean
  Weight, Mean: 9.4 kg
200 mg/kg repeated oral (G2), female, week 1, individual animals, in kg (unit assumed)
  Weight: 9.5 and 9.3 and 9.9
200 mg/kg repeated oral (G2), female, week 1, mean
  Weight, Mean: 9.6 kg
200 mg/kg repeated oral (G2), female, week 2, individual animals, in kg (unit assumed)
  Weight: 9.4 and 9.2 and 9.8
200 mg/kg repeated oral (G2), female, week 2, mean
  Weight, Mean: 9.5 kg
200 mg/kg repeated oral (G2), female, week 3, individual animals, in kg (unit assumed)
  Weight: 9.4 and 9.1 and 9.9
200 mg/kg repeated oral (G2), female, week 3, mean
  Weight, Mean: 9.5 kg
200 mg/kg repeated oral (G2), female, week 4, individual animals, in kg (unit assumed)
  Weight: 9.7 and 9.4 and 9.9
200 mg/kg repeated oral (G2), female, week 4, mean
  Weight, Mean: 9.7 kg
200 mg/kg repeated oral (G2), female, week 5, individual animals, in kg (unit assumed)
  Weight: 9.7 and 9.4 and 9.9
200 mg/kg repeated oral (G2), female, week 5, mean
  Weight, Mean: 9.7 kg
200 mg/kg repeated oral (G2), female, week 6, individual animals
  Weight: 9.6 (2×) and 9.1
200 mg/kg repeated oral (G2), female, week 6, mean
  Weight, Mean: 9.4 kg
200 mg/kg repeated oral (G2), female, week 7, individual animals, in kg (unit assumed)
  Weight: 9.6 and 9.3 and 9.7
200 mg/kg repeated oral (G2), female, week 7, mean
  Weight, Mean: 9.5 kg
200 mg/kg repeated oral (G2), female, week 8, individual animals, in kg (unit assumed)
  Weight: 9.5 and 9.3 and 9.8
200 mg/kg repeated oral (G2), female, week 8, mean
  Weight, Mean: 9.5 kg
200 mg/kg repeated oral (G2), female, week 9, individual animals, in kg (unit assumed)
  Weight: 9.6 and 9.4 and 9.9
200 mg/kg repeated oral (G2), female, week 9, mean
  Weight, Mean: 9.6 kg
200 mg/kg repeated oral (G2), female, week 10, individual animals, in kg (unit assumed)
  Weight: 9.6 and 9.3 and 10.0
200 mg/kg repeated oral (G2), female, week 10, mean
  Weight, Mean: 9.6 kg
200 mg/kg repeated oral (G2), female, week 11, individual animals
  Weight: 9.5 (2×) and 10.1
200 mg/kg repeated oral (G2), female, week 11, mean
  Weight, Mean: 9.7 kg
200 mg/kg repeated oral (G2), female, week 12, individual animals, in kg (unit assumed)
  Weight: 9.6 and 9.5 and 10.0
200 mg/kg repeated oral (G2), female, week 12, mean
  Weight, Mean: 9.7 kg
200 mg/kg repeated oral (G2), female, week 13, individual animals, in kg (unit assumed)
  Weight: 9.7 and 9.5 and 10.2
200 mg/kg repeated oral (G2), female, week 13, mean
  Weight, Mean: 9.8 kg
200 mg/kg repeated oral (G2), female, week pre, individual animals
  Weight: 9.6 (2×) and 9.1
200 mg/kg repeated oral (G2), female, week pre, mean
  Weight, Mean: 9.4 kg
200 mg/kg repeated oral (G2), male, week 0, individual animals
  Weight: 10.1 (2×) and 10.2
200 mg/kg repeated oral (G2), male, week 0, mean
  Weight, Mean: 10.1 kg
200 mg/kg repeated oral (G2), male, week 1, individual animals
  Weight: 10.1 (2×) and 10.2
200 mg/kg repeated oral (G2), male, week 1, mean
  Weight, Mean: 10.1 kg
200 mg/kg repeated oral (G2), male, week 2, individual animals, in kg (unit assumed)
  Weight: 9.9 and 10.1 and 10.0
200 mg/kg repeated oral (G2), male, week 2, mean
  Weight, Mean: 10 kg
200 mg/kg repeated oral (G2), male, week 3, individual animals
  Weight: 10.0 and 10.1 (2×)
200 mg/kg repeated oral (G2), male, week 3, mean
  Weight, Mean: 10.1 kg
200 mg/kg repeated oral (G2), male, week 4, individual animals
  Weight: 10.0 and 10.3 (2×)
200 mg/kg repeated oral (G2), male, week 4, mean
  Weight, Mean: 10.2 kg
200 mg/kg repeated oral (G2), male, week 5, individual animals, in kg (unit assumed)
  Weight: 10.1 and 10.5 and 10.3
200 mg/kg repeated oral (G2), male, week 5, mean
  Weight, Mean: 10.3 kg
200 mg/kg repeated oral (G2), male, week 6, individual animals, in kg (unit assumed)
  Weight: 10.0 and 10.1 and 10.3
200 mg/kg repeated oral (G2), male, week 6, mean
  Weight, Mean: 10.1 kg
200 mg/kg repeated oral (G2), male, week 7, individual animals
  Weight: 10.1 and 10.3 (2×)
200 mg/kg repeated oral (G2), male, week 7, mean
  Weight, Mean: 10.2 kg
200 mg/kg repeated oral (G2), male, week 8, individual animals, in kg (unit assumed)
  Weight: 10.1 and 10.3 and 10.2
200 mg/kg repeated oral (G2), male, week 8, mean
  Weight, Mean: 10.2 kg
200 mg/kg repeated oral (G2), male, week 9, individual animals, in kg (unit assumed)
  Weight: 10.1 and 10.4 and 10.3
200 mg/kg repeated oral (G2), male, week 9, mean
  Weight, Mean: 10.3 kg
200 mg/kg repeated oral (G2), male, week 10, individual animals, in kg (unit assumed)
  Weight: 10.2 and 10.4 and 10.3
200 mg/kg repeated oral (G2), male, week 10, mean
  Weight, Mean: 10.3 kg
200 mg/kg repeated oral (G2), male, week 11, individual animals, in kg (unit assumed)
  Weight: 10.1 and 10.4 and 10.3
200 mg/kg repeated oral (G2), male, week 11, mean
  Weight, Mean: 10.3 kg
200 mg/kg repeated oral (G2), male, week 12, individual animals
  Weight: 10.2 (2×) and 10.4
200 mg/kg repeated oral (G2), male, week 12, mean
  Weight, Mean: 10.3 kg
200 mg/kg repeated oral (G2), male, week 13, individual animals
  Weight: 10.2 (2×) and 10.4
200 mg/kg repeated oral (G2), male, week 13, mean
  Weight, Mean: 10.3 kg
200 mg/kg repeated oral (G2), male, week pre, individual animals, in kg (unit assumed)
  Weight: 10.1 and 10.3 and 10.2
200 mg/kg repeated oral (G2), male, week pre, mean
  Weight, Mean: 10.2 kg
500 mg/kg repeated oral (G3), female, week 0, mean
  Weight, Mean: 9.5 kg
500 mg/kg repeated oral (G3), female, week 1, mean
  Weight, Mean: 9.6 kg
500 mg/kg repeated oral (G3), female, week 2, mean
  Weight, Mean: 9.5 kg
500 mg/kg repeated oral (G3), female, week 3, mean
  Weight, Mean: 9.6 kg
500 mg/kg repeated oral (G3), female, week 4, mean
  Weight, Mean: 9.8 kg
500 mg/kg repeated oral (G3), female, week 5, mean
  Weight, Mean: 9.8 kg
500 mg/kg repeated oral (G3), female, week 6, mean
  Weight, Mean: 9.8 kg
500 mg/kg repeated oral (G3), female, week 7, mean
  Weight, Mean: 9.8 kg
500 mg/kg repeated oral (G3), female, week 8, mean
  Weight, Mean: 9.8 kg
500 mg/kg repeated oral (G3), female, week 9, mean
  Weight, Mean: 9.8 kg
500 mg/kg repeated oral (G3), female, week 10, mean
  Weight, Mean: 9.8 kg
500 mg/kg repeated oral (G3), female, week 11, mean
  Weight, Mean: 9.9 kg
500 mg/kg repeated oral (G3), female, week 12, mean
  Weight, Mean: 9.9 kg
500 mg/kg repeated oral (G3), female, week 13, mean
  Weight, Mean: 10 kg
500 mg/kg repeated oral (G3), female, week pre, mean
  Weight, Mean: 9.5 kg
500 mg/kg repeated oral (G3), male, week 0, individual animals, in kg (unit assumed)
  Weight: 10.0
500 mg/kg repeated oral (G3), male, week 0, mean
  Weight, Mean: 9.9 kg
500 mg/kg repeated oral (G3), male, week 1, mean
  Weight, Mean: 10 kg
500 mg/kg repeated oral (G3), male, week 2, mean
  Weight, Mean: 9.9 kg
500 mg/kg repeated oral (G3), male, week 3, mean
  Weight, Mean: 9.9 kg
500 mg/kg repeated oral (G3), male, week 4, mean
  Weight, Mean: 10 kg
500 mg/kg repeated oral (G3), male, week 5, mean
  Weight, Mean: 10.1 kg
500 mg/kg repeated oral (G3), male, week 6, individual animals, in kg (unit assumed)
  Weight: 10.1
500 mg/kg repeated oral (G3), male, week 6, mean
  Weight, Mean: 10.1 kg
500 mg/kg repeated oral (G3), male, week 7, individual animals, in kg (unit assumed)
  Weight: 10.1
500 mg/kg repeated oral (G3), male, week 7, mean
  Weight, Mean: 10.1 kg
500 mg/kg repeated oral (G3), male, week 8, individual animals, in kg (unit assumed)
  Weight: 10.3
500 mg/kg repeated oral (G3), male, week 8, mean
  Weight, Mean: 10.1 kg
500 mg/kg repeated oral (G3), male, week 9, individual animals, in kg (unit assumed)
  Weight: 10.4
500 mg/kg repeated oral (G3), male, week 9, mean
  Weight, Mean: 10.1 kg
500 mg/kg repeated oral (G3), male, week 10, individual animals, in kg (unit assumed)
  Weight: 10.4
500 mg/kg repeated oral (G3), male, week 10, mean
  Weight, Mean: 10.2 kg
500 mg/kg repeated oral (G3), male, week 11, individual animals, in kg (unit assumed)
  Weight: 10.4
500 mg/kg repeated oral (G3), male, week 11, mean
  Weight, Mean: 10.1 kg
500 mg/kg repeated oral (G3), male, week 12, individual animals, in kg (unit assumed)
  Weight: 10.3
500 mg/kg repeated oral (G3), male, week 12, mean
  Weight, Mean: 10.2 kg
500 mg/kg repeated oral (G3), male, week 13, individual animals, in kg (unit assumed)
  Weight: 10.5
500 mg/kg repeated oral (G3), male, week 13, mean
  Weight, Mean: 10.3 kg
500 mg/kg repeated oral (G3), male, week pre, individual animals, in kg (unit assumed)
  Weight: 10.1
500 mg/kg repeated oral (G3), male, week pre, mean
  Weight, Mean: 10 kg
1,000 mg/kg repeated oral (G4), female, week 0, mean
  Weight, Mean: 9.4 kg
1,000 mg/kg repeated oral (G4), female, week 1, mean
  Weight, Mean: 9.4 kg
1,000 mg/kg repeated oral (G4), female, week 2, mean
  Weight, Mean: 9.3 kg
1,000 mg/kg repeated oral (G4), female, week 3, mean
  Weight, Mean: 9.4 kg
1,000 mg/kg repeated oral (G4), female, week 4, mean
  Weight, Mean: 9.6 kg
1,000 mg/kg repeated oral (G4), female, week 5, mean
  Weight, Mean: 9.5 kg
1,000 mg/kg repeated oral (G4), female, week 6, mean
  Weight, Mean: 9.4 kg
1,000 mg/kg repeated oral (G4), female, week 7, mean
  Weight, Mean: 9.4 kg
1,000 mg/kg repeated oral (G4), female, week 8, mean
  Weight, Mean: 9.5 kg
1,000 mg/kg repeated oral (G4), female, week 9, mean
  Weight, Mean: 9.7 kg
1,000 mg/kg repeated oral (G4), female, week 10, mean
  Weight, Mean: 0.8 kg
1,000 mg/kg repeated oral (G4), female, week 11, mean
  Weight, Mean: 9.8 kg
1,000 mg/kg repeated oral (G4), female, week 12, mean
  Weight, Mean: 9.8 kg
1,000 mg/kg repeated oral (G4), female, week 13, mean
  Weight, Mean: 9.8 kg
1,000 mg/kg repeated oral (G4), female, week pre, mean
  Weight, Mean: 9.4 kg
1,000 mg/kg repeated oral (G4), male, week 0, mean
  Weight, Mean: 10.2 kg
1,000 mg/kg repeated oral (G4), male, week 1, mean
  Weight, Mean: 10.2 kg
1,000 mg/kg repeated oral (G4), male, week 2, mean
  Weight, Mean: 10.1 kg
1,000 mg/kg repeated oral (G4), male, week 3, mean
  Weight, Mean: 10 kg
1,000 mg/kg repeated oral (G4), male, week 4, mean
  Weight, Mean: 10.2 kg
1,000 mg/kg repeated oral (G4), male, week 5, mean
  Weight, Mean: 10.3 kg
1,000 mg/kg repeated oral (G4), male, week 6, mean
  Weight, Mean: 10 kg
1,000 mg/kg repeated oral (G4), male, week 7, mean
  Weight, Mean: 10.1 kg
1,000 mg/kg repeated oral (G4), male, week 8, mean
  Weight, Mean: 10.1 kg
1,000 mg/kg repeated oral (G4), male, week 9, mean
  Weight, Mean: 10.2 kg
1,000 mg/kg repeated oral (G4), male, week 10, mean
  Weight, Mean: 10.2 kg
1,000 mg/kg repeated oral (G4), male, week 11, mean
  Weight, Mean: 10.2 kg
1,000 mg/kg repeated oral (G4), male, week 12, mean
  Weight, Mean: 10.2 kg
1,000 mg/kg repeated oral (G4), male, week 13, mean
  Weight, Mean: 10.2 kg
1,000 mg/kg repeated oral (G4), male, week pre, mean
  Weight, Mean: 10.2 kg
Repeated oral once a day for 13 weeks, male and female
  weight compared with control group: no significant differences in weight from the control group was observed
